Where a SMILES comes first, the peptide text is derived from it. [ ]: non-standard residue; d: D form. The star is where a group is joined. Cys(free,S-linked) = N[C@@H](CS*)C(=O)O; dAbu = CC[C@@H](N)C(=O)O
Assays:
[1] = system: human red blood cells; assay: Hemolytic effect on human red blood cells in vitro; conditions: compound of formula (I) at 100 μg/mL; 37° C. for 1 h; absorbance at 540 nm; FIG. 1
[2] = system: normal rats; assay: In vivo efficacy in a normal rat model after a single dose; set-up: species or system rat (Sprague Dawley); conditions: 3 mg/kg intravenous
Method: SPF normal adult rats (Sprague Dawley, or SD) with weight of 250-350 g were fed with normal diet in an animal room for 7 days. Rats were randomized into groups of 6, half female and half male, and numbered. The day before the start of the experiment, 540 μL of blood was collected from each rat, and the plasma parathyroid hormone levels and the serum calcium ion concentration were measured as control values before administration. […] The plasma parathyroid hormone levels were measured using the Rat Intact PTH ELISA Kit (Quidel—Immunotopics, Cat. #: 60-2500; ELISA: Enzyme-linked immunosorbent assay) according to the kit instructions. […] The absorbance at 450 nm in each well was detected within 10 min after the addition of the ELISA terminating solution, while the absorbance at 620 nm was subtracted as background. A mixture of horseradish peroxidase ELISA substrate 150 μL and ELISA terminating solution 100 μL was used as the blank control in the absorbance detection. A standard curve according to the absorbance of the reference standard was plotted, and the actual plasma parathyroid hormone concentration was calculated according to the absorbance of other samples and the standard curve. […]

[3] = system: rat peritoneal mast cells; assay: In vitro histamine release in rat peritoneal mast cells; assay type: cell-based; conditions: final concentration 10 μM
Method: To evaluate the in vitro histamine release levels induced by some of the test example compounds, rat peritoneal mast cells were collected by lavaging rat peritoneum with a lavage buffer (cold HBSS+25 mM HEPES containing heparin 5 U/mL, pH 7.4). After collection, the cells were centrifuged, and the lavage buffer was discarded. The cells were resuspended and washed twice with a stimulation buffer (HBSS+25 mM HEPES+1 mM CaCl2), pH 7.4). The cells were plated at a density of 10^5 cell/well (200 μL/well) and incubated at 37° C. for 15 min with positive control compound 48/80 (final concentration: 4 μg/mL), test example compound (final concentration: 10 μM) or vehicle control. The cells were centrifuged, and cell supernatant was collected and tested for histamine concentration according to LDN Histamine ELISA kit (BAE-1000) instructions.

Row | histamine release levels in rat peritoneal mast cells in vitro relative to the etelcalcetide [3] | Relative fold of histamine release in vitro ([3]; 37° C. 15 min, relative to PBS buffer) | Compound | hemolytic effect on red blood cells [1] | serum calcium ion levels ([2]; FIG. 3) | plasma parathyroid hormone levels ([2]; within 4 h, FIG. 2)
1 | – | – | polyethylene glycol octyl phenyl ether | significant hemolytic effect | – | –
2 | greatly reduced | 0.97 | CC[C@@H](NC(=O)[C@@H](CCCNC(=N)N)NC(=O)[C@@H](CCCNC(=N)N)NC(=O)[C@@H](CSSC[C@H](N)C(=O)O)NC(C)=O)C(=O)N[C@H](CCCNC(=N)N)C(=O)N[C@H](C)C(=O)N[C@H](CCCNC(=N)N)C(N)=O [Compound of formula (I), Ac-c(C)-r-r-(D-Abu)-r-a-r-NH2] (Ac-[dC](Cys(free,S-linked))[dR][dR][dAbu][dR][dA][dR]-NH2) | – | correspondingly reduced | completely reduced

— US20240269227A1, “CALCIUM-SENSING RECEPTOR AGONIST COMPOSITION AND APPLICATION THEREOF” (Beijing Tuo Jie Biopharmaceutical Co. Ltd., priority 2021, published 2024)
